Reference: ChEMBL document CHEMBL2010689 (J Med Chem, 2012)
Active and inactive are the calls of the source. The rule behind the calls is not given here.

How the values were obtained:
[1] = Antitumor activity against human U251MG cells xenografted in athymic nude mouse assessed as partial tumor regression at 3 mg/kg, po bid; assay type: functional, U-251
[2] = Antitumor activity against human U251MG cells xenografted in athymic nude mouse assessed as complete tumor regression at 1 mg/kg, po bid; assay type: functional, U-251
[3] = Antitumor activity against human U251MG cells xenografted in athymic nude mouse assessed as complete tumor regression at 30 mg/kg, po bid; assay type: functional, U-251
[4] = Metabolic stability in dog liver S9 fraction assessed as compound remaining after 2 hrs; assay type: ADME, subcellular, Canis lupus familiaris; details: read-out: Stability
[5] = Metabolic stability in monkey liver S9 fraction assessed as compound remaining after 2 hrs; assay type: ADME, subcellular, Macaca mulatta; details: rhesus monkey, read-out: Stability
[6] = Metabolic stability in human liver S9 fraction assessed as compound remaining after 2 hrs; assay type: ADME, subcellular; details: read-out: Stability
[7] = Terminal half life in Sprague-Dawley rat at 0.8 mg/kg, iv; assay type: ADME, organism-based; parameters: dose 0.8 mg/kg, route intravenous; details: in vivo, read-out: beta t1/2 (converted)
[8] = Volume of distribution in Sprague-Dawley rat at 0.8 mg/kg, iv; assay type: ADME, organism-based; parameters: dose 0.8 mg/kg, route intravenous; details: in vivo
[9] = Clearance in Sprague-Dawley rat at 0.8 mg/kg, iv; assay type: ADME, organism-based; parameters: dose 0.8 mg/kg, route intravenous; details: in vivo
[10] = AUC in Sprague-Dawley rat at 5 mg/kg, po; assay type: ADME, organism-based; parameters: dose 5 mg/kg, route oral; details: plasma
[11] = Cmax in Sprague-Dawley rat at 5 mg/kg, po; assay type: ADME, organism-based; parameters: dose 5 mg/kg, route oral; details: in vivo
[12] = Terminal half life in cynomolgus monkey at 0.5 mg/kg, iv; assay type: ADME, organism-based, Macaca fascicularis; parameters: dose 0.5 mg/kg, route intravenous; details: in vivo, read-out: beta t1/2 (converted)
[13] = Half life in cynomolgus monkey at 3 mg/kg, po; assay type: ADME, organism-based, Macaca fascicularis; parameters: dose 3 mg/kg, route oral; details: in vivo
Cytochrome P450 3A4 = Cytochrome P450 3A4 (Homo sapiens, UniProt P08684); assay: Inhibition of CYP3A4; assay type: ADME
Cytochrome P450 2D6 = Cytochrome P450 2D6 (Homo sapiens, UniProt P10635); assay: Inhibition of CYP2D6; assay type: ADME
Cytochrome P450 2C19 = Cytochrome P450 2C19 (Homo sapiens, UniProt P33261); assay: Inhibition of CYP2C19; assay type: ADME
[14] = target: High affinity nerve growth factor receptor (Homo sapiens, UniProt P04629); assay: Inhibition of human TRK-A using ATP as substrate
[15] = target: Tyrosine-protein kinase ABL1 (Homo sapiens) (UniProt P00519); assay: Inhibition of ABL at 1 uM
Sequence of Tyrosine-protein kinase ABL1 (Homo sapiens) (P00519 whole entry): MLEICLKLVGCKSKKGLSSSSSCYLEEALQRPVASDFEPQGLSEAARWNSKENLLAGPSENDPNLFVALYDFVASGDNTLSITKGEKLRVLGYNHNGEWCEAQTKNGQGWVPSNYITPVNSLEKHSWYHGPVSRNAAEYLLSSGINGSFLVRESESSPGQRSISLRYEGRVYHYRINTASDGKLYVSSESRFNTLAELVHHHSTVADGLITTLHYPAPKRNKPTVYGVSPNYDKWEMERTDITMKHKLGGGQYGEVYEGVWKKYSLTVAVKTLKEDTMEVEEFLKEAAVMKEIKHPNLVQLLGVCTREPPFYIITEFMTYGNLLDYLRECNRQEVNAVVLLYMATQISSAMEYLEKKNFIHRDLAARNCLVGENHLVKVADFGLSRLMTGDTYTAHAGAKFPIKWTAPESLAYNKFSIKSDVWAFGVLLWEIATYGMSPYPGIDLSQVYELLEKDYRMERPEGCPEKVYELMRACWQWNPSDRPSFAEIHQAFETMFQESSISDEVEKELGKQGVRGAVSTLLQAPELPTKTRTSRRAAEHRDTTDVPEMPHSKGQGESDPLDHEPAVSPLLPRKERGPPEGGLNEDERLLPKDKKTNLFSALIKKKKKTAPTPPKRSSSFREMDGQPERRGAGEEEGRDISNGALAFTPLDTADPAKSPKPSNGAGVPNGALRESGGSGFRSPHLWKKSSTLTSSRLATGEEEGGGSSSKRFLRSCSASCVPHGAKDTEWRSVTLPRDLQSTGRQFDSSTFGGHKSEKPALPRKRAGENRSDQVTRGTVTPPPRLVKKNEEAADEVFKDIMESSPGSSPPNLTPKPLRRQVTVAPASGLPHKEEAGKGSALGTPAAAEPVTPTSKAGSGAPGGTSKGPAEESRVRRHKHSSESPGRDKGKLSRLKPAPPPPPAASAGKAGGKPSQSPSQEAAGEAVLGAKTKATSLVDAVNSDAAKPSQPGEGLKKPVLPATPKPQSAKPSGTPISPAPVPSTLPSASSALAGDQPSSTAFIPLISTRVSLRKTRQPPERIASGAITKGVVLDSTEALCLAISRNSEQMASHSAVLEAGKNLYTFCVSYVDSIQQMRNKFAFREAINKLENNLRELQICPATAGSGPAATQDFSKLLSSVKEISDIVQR

[16] = target: Epidermal growth factor receptor (Homo sapiens) (UniProt P00533); assay: Inhibition of EGFR at 1 uM
Sequence of Epidermal growth factor receptor (Homo sapiens) (P00533 whole entry): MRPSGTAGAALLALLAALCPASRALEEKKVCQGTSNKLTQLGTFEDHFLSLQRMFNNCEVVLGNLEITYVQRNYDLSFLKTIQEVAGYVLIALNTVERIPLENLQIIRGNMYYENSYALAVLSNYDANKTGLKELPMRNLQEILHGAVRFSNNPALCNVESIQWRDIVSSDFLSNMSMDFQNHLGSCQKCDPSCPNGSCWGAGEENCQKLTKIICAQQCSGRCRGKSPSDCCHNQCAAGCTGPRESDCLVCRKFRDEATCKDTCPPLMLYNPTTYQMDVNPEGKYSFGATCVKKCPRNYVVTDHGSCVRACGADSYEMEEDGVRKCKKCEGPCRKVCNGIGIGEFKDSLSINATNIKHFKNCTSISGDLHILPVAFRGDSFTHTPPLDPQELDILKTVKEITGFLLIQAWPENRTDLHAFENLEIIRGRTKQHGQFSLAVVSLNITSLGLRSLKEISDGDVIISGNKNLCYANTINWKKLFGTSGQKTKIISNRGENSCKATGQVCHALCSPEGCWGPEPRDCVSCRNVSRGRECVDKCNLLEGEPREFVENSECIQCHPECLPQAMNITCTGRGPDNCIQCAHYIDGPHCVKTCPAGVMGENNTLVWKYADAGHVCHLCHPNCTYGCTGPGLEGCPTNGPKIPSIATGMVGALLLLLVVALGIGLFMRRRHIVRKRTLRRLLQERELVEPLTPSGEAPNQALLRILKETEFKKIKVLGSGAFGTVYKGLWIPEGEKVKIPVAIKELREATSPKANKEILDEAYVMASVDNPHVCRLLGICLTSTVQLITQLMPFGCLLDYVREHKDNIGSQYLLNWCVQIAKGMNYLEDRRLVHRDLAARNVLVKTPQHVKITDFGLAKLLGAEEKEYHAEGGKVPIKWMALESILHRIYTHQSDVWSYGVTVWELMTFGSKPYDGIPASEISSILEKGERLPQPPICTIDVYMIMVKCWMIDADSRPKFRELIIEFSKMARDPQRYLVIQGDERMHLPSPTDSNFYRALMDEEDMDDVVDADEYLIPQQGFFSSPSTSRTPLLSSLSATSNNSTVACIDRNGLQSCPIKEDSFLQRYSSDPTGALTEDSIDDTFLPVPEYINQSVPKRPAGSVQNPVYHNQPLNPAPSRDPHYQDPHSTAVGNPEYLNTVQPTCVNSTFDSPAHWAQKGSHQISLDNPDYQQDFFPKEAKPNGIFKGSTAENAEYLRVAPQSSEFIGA

[17] = Inhibition of JNK at 1 uM
[18] = Inhibition of Mek at 1 uM
[19] = Inhibition of PDGFR at 1 uM
[20] = target: RAC-alpha serine/threonine-protein kinase (Homo sapiens) (UniProt P31749); assay: Inhibition of PKB at 1 uM
Sequence of RAC-alpha serine/threonine-protein kinase (Homo sapiens) (P31749 whole entry): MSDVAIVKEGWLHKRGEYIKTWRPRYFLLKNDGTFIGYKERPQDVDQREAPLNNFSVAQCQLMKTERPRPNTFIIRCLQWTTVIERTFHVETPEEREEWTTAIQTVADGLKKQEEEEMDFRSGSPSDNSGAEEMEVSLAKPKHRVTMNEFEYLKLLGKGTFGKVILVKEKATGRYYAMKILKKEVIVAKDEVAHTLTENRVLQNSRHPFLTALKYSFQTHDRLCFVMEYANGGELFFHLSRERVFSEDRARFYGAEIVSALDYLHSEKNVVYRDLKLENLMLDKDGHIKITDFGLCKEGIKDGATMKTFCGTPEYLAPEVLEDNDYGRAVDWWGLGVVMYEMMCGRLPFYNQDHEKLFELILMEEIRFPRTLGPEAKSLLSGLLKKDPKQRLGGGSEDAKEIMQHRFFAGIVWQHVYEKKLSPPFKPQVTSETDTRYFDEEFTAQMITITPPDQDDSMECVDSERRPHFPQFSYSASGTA

[21] = Inhibition of PKC at 1 uM
Adenosine receptor A2a = Adenosine receptor A2a (Homo sapiens, UniProt P29274); assay: Inhibition of adenosine A2A receptor at 10 uM
[22] = target: Adenosine receptor A3 (Homo sapiens) (UniProt P0DMS8); assay: Inhibition of adenosine A3 receptor at 10 uM
Sequence of Adenosine receptor A3 (Homo sapiens) (P0DMS8 whole entry): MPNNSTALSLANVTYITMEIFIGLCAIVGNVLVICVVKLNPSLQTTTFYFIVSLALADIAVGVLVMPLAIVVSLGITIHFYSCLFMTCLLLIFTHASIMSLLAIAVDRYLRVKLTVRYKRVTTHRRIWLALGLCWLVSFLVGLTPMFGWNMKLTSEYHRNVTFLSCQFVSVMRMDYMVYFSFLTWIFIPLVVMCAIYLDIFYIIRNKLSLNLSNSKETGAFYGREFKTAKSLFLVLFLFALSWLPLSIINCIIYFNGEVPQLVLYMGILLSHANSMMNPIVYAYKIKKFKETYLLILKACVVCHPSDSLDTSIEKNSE

[23] = target: Muscarinic acetylcholine receptor M2 (Homo sapiens) (UniProt P08172); assay: Inhibition of muscarinic M2 receptor at 10 uM
[24] = target: Muscarinic acetylcholine receptor M4 (Homo sapiens, UniProt P08173); assay: Inhibition of muscarinic M4 receptor
Sequence of Muscarinic acetylcholine receptor M4 (P08173 whole entry): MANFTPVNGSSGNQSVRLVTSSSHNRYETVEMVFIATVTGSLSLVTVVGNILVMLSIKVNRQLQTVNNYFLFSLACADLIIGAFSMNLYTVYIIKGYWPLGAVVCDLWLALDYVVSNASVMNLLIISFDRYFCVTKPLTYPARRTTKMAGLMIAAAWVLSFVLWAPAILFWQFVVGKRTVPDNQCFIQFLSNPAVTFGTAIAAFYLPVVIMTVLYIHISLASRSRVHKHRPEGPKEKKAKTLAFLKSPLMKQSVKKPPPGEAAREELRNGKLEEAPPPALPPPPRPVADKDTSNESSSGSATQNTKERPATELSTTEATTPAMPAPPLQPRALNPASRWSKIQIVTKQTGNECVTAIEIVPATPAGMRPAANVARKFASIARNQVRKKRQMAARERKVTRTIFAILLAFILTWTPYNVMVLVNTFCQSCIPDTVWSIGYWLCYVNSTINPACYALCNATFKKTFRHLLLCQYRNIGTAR

HUVEC [25] = assay: Cytotoxicity against HUVEC; assay type: cell-based; details: human
[26] = Antiangiogenic activity in BAEC assessed as inhibition of VEGF-induced proliferation; assay type: functional; details: Bos taurus
HUVEC [27] = assay: Antiangiogenic activity in HUVEC assessed as inhibition of FGF-induced proliferation; assay type: functional, cell-based; details: Homo sapiens
[28] = Antiangiogenic activity in BAEC assessed as inhibition of FGF-induced proliferation; assay type: functional; details: Bos taurus
HUVEC [29] = assay: Antiangiogenic activity in HUVEC assessed as inhibition of VEGF-induced migration; assay type: functional, cell-based; details: Homo sapiens
HUVEC [30] = assay: Antiangiogenic activity in HUVEC assessed as inhibition of FGF-induced migration; assay type: functional, cell-based; details: Homo sapiens
HUVEC [31] = assay: Antiangiogenic activity in HUVEC assessed as inhibition of VEGF-induced survival; assay type: functional, cell-based; details: Homo sapiens
HUVEC [32] = assay: Antiangiogenic activity in HUVEC assessed as inhibition of FGF-induced survival; assay type: functional, cell-based; details: Homo sapiens
[33] = Antiangiogenic activity in BAEC assessed as inhibition of FGF-induced survival; assay type: functional, Bos taurus
[34] = Antitumor activity against human U251MG cells xenografted in athymic nude mouse assessed as partial tumor regression at 30 mg/kg, po bid; assay type: functional, U-251
[35] = Cmax in athymic nude mouse tumor xenografted with human U251MG cells at 30 mg/kg, po; assay type: ADME, organism-based, Neoplasm, U-251; parameters: dose 30 mg/kg, route oral
A-375 [36] = assay: Antitumor activity against human A375 cells xenografted in athymic nude mouse assessed as tumor growth inhibition at 0.3 mg/kg, po bid measured on day 29 relative to control; assay type: functional; details: A-375, 696 h, read-out: GI
A-375 [37] = assay: Antitumor activity against human A375 cells xenografted in athymic nude mouse assessed as tumor growth inhibition at 1 mg/kg, po bid measured on day 29 relative to control; assay type: functional; details: A-375, 696 h, read-out: GI
A-375 [38] = assay: Antitumor activity against human A375 cells xenografted in athymic nude mouse assessed as partial tumor regression at 3 mg/kg, po bid; assay type: functional
A-375 [39] = assay: Antitumor activity against human A375 cells xenografted in athymic nude mouse assessed as complete tumor regression at 3 mg/kg, po bid; assay type: functional
A-375 [40] = assay: Antitumor activity against human A375 cells xenografted in athymic nude mouse assessed as complete tumor regression at 10 mg/kg, po bid; assay type: functional
Mus musculus [41] = assay: Toxicity in athymic nude mouse bearing human U251MG cells assessed as apparent toxicity at 1 to 30 mg/kg, po; assay type: organism-based, U-251; parameters: dose 1-30 mg/kg, route oral; details: in vivo
Mus musculus [42] = assay: Toxicity in athymic nude mouse bearing human A375 cells assessed as morbidity at 0.1 to 10 mg/kg, po; assay type: organism-based, A-375; parameters: dose 0.1-10 mg/kg, route oral; details: in vivo
Mus musculus [43] = assay: Toxicity in athymic nude mouse bearing human U251MG cells assessed as morbidity at 1 to 30 mg/kg, po; assay type: organism-based, U-251; parameters: dose 1-30 mg/kg, route oral; details: in vivo
P388 [44] = assay: Antitumor activity against mouse P388 cells xenografted in DBA/2 mouse assessed as mean survival at 30 mg/kg, po qd (reference value: 14 days); assay type: functional
P388 [45] = assay: Antitumor activity against mouse P388 cells xenografted in DBA/2 mouse assessed as mean survival at 30 mg/kg, po qd for 7 days followed by readministeration after 7 days; assay type: functional
[46] = target: T1, Vascular endothelial growth factor receptor 2 (Homo sapiens, UniProt P35968)
T1 sequence (P35968 whole entry): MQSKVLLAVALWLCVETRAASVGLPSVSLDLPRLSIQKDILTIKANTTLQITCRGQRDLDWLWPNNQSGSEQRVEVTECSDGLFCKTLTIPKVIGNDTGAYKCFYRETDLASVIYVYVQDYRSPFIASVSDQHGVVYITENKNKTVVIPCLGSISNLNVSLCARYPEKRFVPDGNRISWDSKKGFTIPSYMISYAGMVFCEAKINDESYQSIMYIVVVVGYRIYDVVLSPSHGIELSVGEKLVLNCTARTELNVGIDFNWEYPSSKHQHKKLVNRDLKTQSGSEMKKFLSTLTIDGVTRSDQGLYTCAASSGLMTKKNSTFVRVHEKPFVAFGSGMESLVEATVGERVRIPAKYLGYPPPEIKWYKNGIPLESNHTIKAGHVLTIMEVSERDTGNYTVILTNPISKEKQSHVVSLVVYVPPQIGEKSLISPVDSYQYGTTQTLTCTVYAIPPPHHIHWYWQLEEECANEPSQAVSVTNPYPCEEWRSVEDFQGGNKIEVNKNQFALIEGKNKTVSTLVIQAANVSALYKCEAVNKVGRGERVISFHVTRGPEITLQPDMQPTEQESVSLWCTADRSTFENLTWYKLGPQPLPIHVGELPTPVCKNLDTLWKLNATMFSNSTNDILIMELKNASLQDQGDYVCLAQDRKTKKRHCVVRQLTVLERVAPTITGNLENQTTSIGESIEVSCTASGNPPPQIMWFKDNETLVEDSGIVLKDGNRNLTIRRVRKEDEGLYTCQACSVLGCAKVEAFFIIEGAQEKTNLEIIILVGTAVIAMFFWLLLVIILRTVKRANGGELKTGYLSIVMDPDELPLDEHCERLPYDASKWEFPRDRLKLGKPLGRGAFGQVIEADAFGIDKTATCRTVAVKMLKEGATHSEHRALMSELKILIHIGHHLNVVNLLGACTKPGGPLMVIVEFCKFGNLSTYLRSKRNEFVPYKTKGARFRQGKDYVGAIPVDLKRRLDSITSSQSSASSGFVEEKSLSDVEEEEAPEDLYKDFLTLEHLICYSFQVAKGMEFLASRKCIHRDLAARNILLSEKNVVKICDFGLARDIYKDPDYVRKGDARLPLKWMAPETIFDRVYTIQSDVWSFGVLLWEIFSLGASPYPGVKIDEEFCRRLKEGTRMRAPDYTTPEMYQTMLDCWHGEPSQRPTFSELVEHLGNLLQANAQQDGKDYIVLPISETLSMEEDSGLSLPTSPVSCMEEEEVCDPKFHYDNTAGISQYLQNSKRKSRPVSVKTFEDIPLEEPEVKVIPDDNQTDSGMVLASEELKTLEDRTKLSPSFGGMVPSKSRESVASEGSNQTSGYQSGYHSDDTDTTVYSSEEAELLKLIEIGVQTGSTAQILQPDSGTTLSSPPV
Description: Inhibition of human recombinant VEGF-R2 expressed in baculovirus expression system using GST-PLCgamma as substrate after 1 hr by time-resolved fluorescence analysis

[47] = target: T1, Vascular endothelial growth factor receptor 2; remark: listed apart in the source
Description: Inhibition of human VEGFR2 expressed in porcine PAE145 cells cotransfected with chimeric rat TRK-A/KDR receptor after 1 hr by immunofluorescence assay

[48] = Cmax in athymic nude mouse tumor xenografted with human A375 cells at 10 mg/kg, po
[49] = Cmax in athymic nude mouse plasma xenografted with human A375 cells at 10 mg/kg, po
A-375 [50] = assay: Antitumor activity against human A375 cells xenografted in athymic nude mouse assessed as partial tumor regression at 0.3 mg/kg, po bid

With `CC(C)Cn1c2ccc(Nc3ncccn3)cc2c2c3c(c4c(c21)CCc1nn(C)cc1-4)C(=O)NC3` [CEP-11981] as the molecule, how does the Activity [1] read?
Its Activity is 0%.

What about the Activity [2] of the same molecule?
Its Activity is 0%.

And the Activity [3]?
The Activity was 0%.

What about the remaining at 2 h [4] of the same molecule?
Its remaining at 2 h is 65%.

What about the remaining at 2 h [5] of the same molecule?
Its remaining at 2 h is 54%.

And the remaining at 2 h [6]?
The remaining at 2 h was 79%.

What about the half-life [7] of the same molecule?
Its half-life is 1.9 h.

And the Vd [8]?
The Vd was 1.3 L/kg.

And the clearance [9]?
Its clearance is 4.3 mL/min/kg.

And the AUC [10]?
Its AUC is 8560 ng·h/mL.

And the Cmax [11]?
Its Cmax is 1330 ng/mL.

And the half-life [12]?
Its half-life is 1.7 h.

What about the half-life [13] of the same molecule?
The half-life was 2.4 h.

And the IC50 (Cytochrome P450 3A4)?
The IC50 was greater than 30000 nM.

What about the IC50 (Cytochrome P450 2D6) of the same molecule?
The IC50 was greater than 30000 nM.

What about the IC50 (Cytochrome P450 2C19) of the same molecule?
The IC50 was 9000 nM.

And the IC50 [14]?
Its IC50 is 3 nM.

What about the inhibition [15] of the same molecule?
The inhibition was “Active”.

And the inhibition [16]?
Its inhibition is “Active”.

What about the inhibition [17] of the same molecule?
The inhibition was “Active”.

And the inhibition [18]?
Its inhibition is “Active”.

And the inhibition [19]?
The inhibition was “Active”.

What about the inhibition [20] of the same molecule?
Its inhibition is “Active”.

What about the inhibition [21] of the same molecule?
Its inhibition is “Active”.

What about the inhibition (Adenosine receptor A2a) of the same molecule?
Its inhibition is greater than 80%.

And the inhibition [22]?
Its inhibition is greater than 80%.

What about the inhibition [23] of the same molecule?
Its inhibition is greater than 80%.

What about the Ki [24] of the same molecule?
Its Ki is 2900 nM.

And the Activity (HUVEC [25])?
Its Activity is “Non-toxic”.

What about the EC50 [26] of the same molecule?
The EC50 was 8 nM.

And the EC50 (HUVEC [27])?
Its EC50 is 8 nM.

What about the EC50 [28] of the same molecule?
Its EC50 is 8 nM.

And the EC50 (HUVEC [29])?
The EC50 was 8 nM.

And the EC50 (HUVEC [30])?
Its EC50 is 8 nM.

What about the EC50 (HUVEC [31]) of the same molecule?
Its EC50 is 8 nM.

What about the EC50 (HUVEC [32]) of the same molecule?
Its EC50 is 8 nM.

And the EC50 [33]?
Its EC50 is 8 nM.

And the Activity [34]?
The Activity was 44%.

What about the Cmax [35] of the same molecule?
Its Cmax is 401 ng/g.

And the inhibition in vivo at 0.3 mg/kg (A-375 [36])?
Its inhibition in vivo at 0.3 mg/kg is 71%.

What about the inhibition in vivo at 1 mg/kg (A-375 [37]) of the same molecule?
Its inhibition in vivo at 1 mg/kg is 73%.

What about the Activity (A-375 [38]) of the same molecule?
Its Activity is 11%.

And the Activity (A-375 [39])?
Its Activity is 22%.

And the Activity (A-375 [40])?
Its Activity is 40%.

And the Activity (Mus musculus [41])?
Its Activity is “Non-toxic”.

What about the Activity (Mus musculus [42]) of the same molecule?
The Activity was “Non-toxic”.

What about the Activity (Mus musculus [43]) of the same molecule?
The Activity was “Non-toxic”.

What about the MSD (P388 [44]) of the same molecule?
The MSD was 23 days.

And the MSD (P388 [45])?
The MSD was 18.5 days.

What about the IC50 [46] of the same molecule?
Its IC50 is 4 nM.

What about the IC50 [47] of the same molecule?
Its IC50 is less than 10 nM.

What about the Cmax [48] of the same molecule?
The Cmax was 140 ng/g.

What about the Cmax [49] of the same molecule?
The Cmax was 456 ng/mL.

What about the Activity (A-375 [50]) of the same molecule?
The Activity was 20%.
